What was measured:
Format in all cases: in vivo
[1] = test system: Amaranthus retoflexus (AMARE); experiment: Pre-emergence Test, AMARE; conditions: 1000 g/ha, evaluated after 13 days
[2] = test system: Ipornoea hederacea (IPOHE); experiment: Pre-emergence Test, IPOHE; conditions: 1000 g/ha, evaluated after 13 days
[3] = test system: Echinochloa crus-galli (ECHCG); experiment: Pre-emergence Test, ECHCG; conditions: 1000 g/ha, evaluated after 13 days
[4] = test system: Setaria faberi (SETFA); experiment: Pre-emergence Test, SETFA; conditions: 1000 g/ha, evaluated after 13 days
[5] = test system: ZEAMX; experiment: Pre-emergence Test, ZEAMX; conditions: 1000 g/ha, evaluated after 13 days
[6] = test system: ABUTH; experiment: Pre-emergence Test, ABUTH; conditions: 1000 g/ha, evaluated after 13 days
[7] = test system: Amaranthus retoflexus (AMARE); experiment: Post-emergence Test, AMARE; conditions: sprayed after 8 days cultivation, 1000 g/ha, evaluated after 13 days
Description: (§1) Seeds of a variety of test species are sown in standard soil in pots (Amaranthus retoflexus (AMARE), Solarium nigrum (SOLNI), Setaria faberi (SETFA), Lolium perenne (LOLPE), Echinochloa crus-galli (ECHCG), Ipornoea hederacea (IPOHE)). After 8 days cultivation under controlled conditions in a glasshouse (at 24° C./16° C., day/night; 14 hours light; 65% humidity), the plants are sprayed with an aqueous spray solution derived from the formulation of the technical active ingredient in acetone/water (50:50) solution containing 0.5% Tween 20 (polyoxyethylene sorbitan monolaurate, CAS RN 9005-64-5). Compounds are applied at 1000 g/ha unless otherwise stated. The test plants are then grown in a glasshouse under controlled conditions in a glasshouse (at 24° C./16° C., day/night; 14 hours light; 65% humidity) and watered twice daily. After 13 days the test is evaluated for the percentage damage caused to the plant. The biological activities are shown in the following table on a five-point scale (5=81-100%; 4=61-80%; 3=41-60%; 2=21-40%; 1=10-20%; 0=0%; −=not tested).

[8] = test system: Ipornoea hederacea (IPOHE); experiment: Post-emergence Test, IPOHE; conditions: sprayed after 8 days cultivation, 1000 g/ha, evaluated after 13 days
Description: as §1

[9] = test system: Echinochloa crus-galli (ECHCG); experiment: Post-emergence Test, ECHCG; conditions: sprayed after 8 days cultivation, 1000 g/ha, evaluated after 13 days
Description: as §1

[10] = test system: Setaria faberi (SETFA); experiment: Post-emergence Test, SETFA; conditions: sprayed after 8 days cultivation, 1000 g/ha, evaluated after 13 days
Description: as §1

[11] = test system: ZEAMX; experiment: Post-emergence Test, ZEAMX; conditions: sprayed after 8 days cultivation, 1000 g/ha, evaluated after 13 days
Description: [The procedure below names another target; the source lists this target under the same test.] as §1

[12] = test system: ABUTH; experiment: Post-emergence Test, ABUTH; conditions: sprayed after 8 days cultivation, 1000 g/ha, evaluated after 13 days
Description: [The procedure below names another target; the source lists this target under the same test.] as §1

Row | SMILES | percentage damage caused to the plant, AMARE [1] | percentage damage caused to the plant, IPOHE [2] | percentage damage caused to the plant, ECHCG [3] | percentage damage caused to the plant, SETFA [4] | percentage damage caused to the plant, ZEAMX [5] | percentage damage caused to the plant, ABUTH [6] | percentage damage caused to the plant, AMARE [7] | percentage damage caused to the plant, IPOHE [8] | percentage damage caused to the plant, ECHCG [9] | percentage damage caused to the plant, SETFA [10] | percentage damage caused to the plant, ZEAMX [11] | percentage damage caused to the plant, ABUTH [12]
1 | CCOC(=O)c1nn(-c2ccc(OC(F)(F)F)cc2)c2cccc(CC=O)c2c1=O [Compound P18, ethyl 4-oxo-5-(2-oxoethyl)-1-[4-(trifluoromethoxy)phenyl] cinnoline-3-carboxylate] | 0 (0=0%) | 0 (0=0%) | 0 (0=0%) | 1 (1=10-20%) | 0 (0=0%) | 0 (0=0%) | 0 (0=0%) | 1 (1=10-20%) | 1 (1=10-20%) | 1 (1=10-20%) | 1 (1=10-20%) | 1 (1=10-20%)
2 | O=C(O)c1nn(-c2ccc(OC(F)(F)F)cc2)c2cccc(-n3cc(Cl)cn3)c2c1=O [Compound P19] | 0 (0=0%) | 0 (0=0%) | 3 (3=41-60%) | 4 (4=61-80%) | 1 (1=10-20%) | 0 (0=0%) | 2 (2=21-40%) | 2 (2=21-40%) | 3 (3=41-60%) | 4 (4=61-80%) | 2 (2=21-40%) | 1 (1=10-20%)
3 | O=C(O)c1nn(-c2ccc(OC(F)(F)F)cc2)c2cccc(-n3cc(C(F)(F)F)nn3)c2c1=O [Compound P21, 4-oxo-1-[4-(trifluoromethoxy)phenyl]-5-[4-(trifluoromethyl)triazol-1-yl]cinnoline-3-carboxylic acid] | 1 (1=10-20%) | 1 (1=10-20%) | 1 (1=10-20%) | 2 (2=21-40%) | 0 (0=0%) | 0 (0=0%) | 1 (1=10-20%) | 0 (0=0%) | 0 (0=0%) | 2 (2=21-40%) | 1 (1=10-20%) | 1 (1=10-20%)
4 | O=C(O)c1nn(-c2ccc(OC(F)(F)F)cc2)c2cccc(-n3cc(C(F)(F)F)cn3)c2c1=O [Compound P22, 4-oxo-1-[4-(trifluoromethoxy)phenyl]-5-[4-(trifluoromethyl)pyrazol-1-yl]cinnoline-3-carboxylic acid] | 2 (2=21-40%) | 0 (0=0%) | 0 (0=0%) | 0 (0=0%) | 0 (0=0%) | 0 (0=0%) | 4 (4=61-80%) | 1 (1=10-20%) | 0 (0=0%) | 2 (2=21-40%) | 2 (2=21-40%) | 1 (1=10-20%)
5 | O=C(O)c1nn(-c2ccc(OC(F)(F)F)cc2)c2cccc(N3CCCC3)c2c1=O [Compound P23, 4-oxo-5-pyrrolidin-1-yl-1-[4-(trifluoromethoxy)phenyl] cinnoline-3-carboxylic acid] | 0 (0=0%) | 0 (0=0%) | 0 (0=0%) | 0 (0=0%) | 0 (0=0%) | 0 (0=0%) | 0 (0=0%) | 0 (0=0%) | 0 (0=0%) | 0 (0=0%) | 0 (0=0%) | 0 (0=0%)
